{"source": "patent US20090137652A1", "about": "“METHODS FOR NEUROPROTECTION” (priority 2005, published 2009)", "key": {"[1]": {"tested_on": "transient cerebral ischemia middle cerebral artery occlusion (MCAO) rat model", "experiment": "Transient cerebral ischemia middle cerebral artery occlusion (MCAO) rat model, infarct volume", "format": "in vivo", "conditions": "N 12; for Mean Infarct Volume ± S.E.M., Striatum: vehicle 79.4; for Mean Infarct Volume ± S.E.M., Cortex: vehicle 275.5; for Mean Infarct Volume ± S.E.M., Total Volume: vehicle 354.9", "description": "The enantiomer of Formula 7 (test compound) was investigated in the transient cerebral ischemia middle cerebral artery occlusion (MCAO) rat model (as described in Nagasawa H. and Kogure K., Stroke, 1989, 20, 1037; and, Zea Longa E., Weinstein P. R., Carlson S, and Cummins R., Stroke, 1989, 20, 84) using male Wistar rats at 10 and 100 mg/kg (i.v.). MK 801 (Dizocilpine maleate; CAS Registry number 77086-22-7, a commercially available neuroprotectant compound) was used as a positive control (3 mg/kg, i.p.).\nRats (n=12) were randomly allocated to one of four experimental groups and were anesthetized. Blood flow from the internal carotid artery, anterior cerebral artery and posterior cerebral artery into the middle cerebral artery was blocked by this procedure. One hour after blockage, animals were treated over a 1 hour period with vehicle (administered i.v. over the one hour period), control (administered as a single i.p. dose at the start of the one hour period) and two doses of the enantiomer of Formula 7 (administered i.v. over the one hour period). Two hours after blockage, reperfusion was performed.\nThe animals were sacrificed and […] coronal sections of each brain were prepared. One in every forty sections (i.e. every […]) from the front to the occipital cortex was used to quantify the extent of the cerebral lesion. Slides were prepared using sections stained (according to the Nissl procedure) with cresyl violet and were examined under a light microscope.\nRegional ischemic surface areas in the coronal sections of individual rats were determined according to the presence of cells with morphological changes. The areas of neuronal injury or infarction were measured and then added. The cortex and striatum volume were calculated for each animal (total ischemic surface area×0.8 mm (thickness)).\nThe mean volumes (.+−.S.E.M.) for each animal randomly assigned to the four experimental groups were compared using one-way ANOVA (one way ANOVA is a statistical method which compares 3 or more unmatched groups) followed by Dunnett's t-test (both methods incorporated in Statview 512+software, BarinPower, Calabasas, Calif., USA)."}, "[2]": {"tested_on": "PC12 cells", "experiment": "PC12 cell serum withdrawal model, MTS cell survival assay", "format": "cell-based", "from_the_text": "Serum withdrawal is a cytotoxic environmental challenge that results in cell death in cultured cell lines as well as in primary cells of various tissue origins, including nerve cells. In particular, pheochromocytoma (PC) 12 cells have been widely employed as an in vitro neuronal cell model for a wide variety of neurodegenerative and cell death related disorders (Muriel, et al, Mitochondrial free calcium levels (Rhod-2 fluorescence) and ultrastructural alterations in neuronally differentiated PC12 cells during ceramide-dependent cell death, J. Comp. Neurol., 2000, 426(2), 297-315; Dermitzaki, et al, Opioids transiently prevent activation of apoptotic mechanisms following short periods of serum withdrawal, J. Neurochem., 2000, 74(3), 960-969; Carlile, et al, Reduced apoptosis after nerve growth factor and serum withdrawal: conversion of tetrameric glyceraldehyde-3-phosphate dehydrogenase to a dimer, Mol. Pharmacol., 2000, 57(1), 2-12). PC12 cells were cultured in sterile media (RPMI 1640) supplemented with 10% heat-inactivated horse serum and 5% fetal bovine serum (FBS). The culture medium also contained Penicillin-Streptomycin-Neomycin antibiotic (50 µg, 50 µg, 100 µg, respectively). Medium was exchanged every other day and the cells were passed in log phase near confluence.\nThe control cells were cultured in regular media without any treatment. An enantiomer of Formula 7 or Formula 8 (10 µM) was mixed well in the medium and then applied to the cells. For the 2 day assay, an enantiomer of Formula 7 or Formula 8 (10 µM) was only applied to the cells once at the time of serum withdrawal. For the 7 day assay, an enantiomer of Formula 7 or Formula 8 (10. mu.M) was applied to the cells at the time of serum withdrawal and every 48 hr thereafter when cells were changed with fresh new serum-free medium. In the serum withdrawal group, the cells were cultured in serum-free medium with no additional enantiomer of Formula 7 or Formula 8. Cell survival was determined by the 3-(4,5-dimethylthiazol-2-yl)-5-(3-[…])-2-(4-sulfophenyl)-2H-tetrazolium inner salt (MTS) assay at 2 or 7 days after serum withdrawal.\nAt the end of the experiment, cells were washed with fresh medium and incubated with MTS solution in a humidified 37° C. with 5% CO2 incubator for 1.5 hr. After the incubation period, the cells were immediately analyzed using a Softmax program (Molecular Devices). […] The assay is based on the cellular conversion of the tetrazolium salt, MTS, into a formazan that is soluble in tissue culture medium and measured directly at 490 nm in 96-well assay plates. The absorbance is directly proportional to the number of living cells in culture. The arbitrary absorbance reading in control cells is expressed as 100% survival rate."}, "[3]": {"tested_on": "rats subjected to li-pilo SE", "experiment": "Latency to and frequency of spontaneous seizures by video recording, lithium-pilocarpine model (Example 2)", "format": "in vivo, rat", "conditions": "pilo-TC90 (90 mg/kg), Non epileptic subgroup (n = 5), no seizure over 150 days post-SE"}, "[4]": {"conditions": "Formula 7 10 mg/kg i.v. over 1 hour"}, "[5]": {"conditions": "Formula 7 100 mg/kg i.v. over 1 hour"}}, "note": "Marks after values point to notes of the source that are not given here."}
{"smiles": "NC(=O)OC[C@@H](O)c1ccccc1Cl", "note": "[Formula 7]", "values": [{"measurement": "Mean Infarct Volume ± S.E.M., Striatum", "setting": "[1]; [4]", "value": "75.9 ± 2.6", "unit": "mm^3"}, {"measurement": "Mean Infarct Volume ± S.E.M., Cortex", "setting": "[1]; [4]", "value": "201.0 ± 23.9", "unit": "mm^3"}, {"measurement": "Mean Infarct Volume ± S.E.M., Total Volume", "setting": "[1]; [4]", "value": "276.9 ± 25.4", "unit": "mm^3"}, {"measurement": "Mean Infarct Volume ± S.E.M., Striatum", "setting": "[1]; [5]", "value": "63.0 ± 5.9^2 mm^3"}, {"measurement": "Mean Infarct Volume ± S.E.M., Cortex", "setting": "[1]; [5]", "value": "98.8 ± 29.5^1 mm^3"}, {"measurement": "Mean Infarct Volume ± S.E.M., Total Volume", "setting": "[1]; [5]", "value": "161.9 ± 34.3^1 mm^3"}, {"measurement": "2 Day Survival Rate", "setting": "[2]; 10 µM applied once at serum withdrawal, MTS assay 2 days after serum withdrawal, control 100, serum-free 49.6", "value": "69.4 ± 1.7^1%"}, {"measurement": "7 Day Survival Rate", "setting": "[2]; 10 µM at serum withdrawal and every 48 hr, MTS assay 7 days after serum withdrawal, control 100, serum-free 23.8", "value": "79.9 ± 4.0^2%"}, {"measurement": "Latency to the first spontaneous seizure", "setting": "[3]", "value": "150** °° days"}]}
